Assay results reported in patent EP0942911B1, “BENZOPYRANOPYRROLE AND BENZOPYRANOPYRIDINE ALPHA-1 ADRENERGIC COMPOUNDS” (Abbott Laboratories, priority 1996, dated 1998).
Where a name gives a salt, the structure may show the parent alone.

Molecular target: T1, α-1A adrenoreceptor (Rattus norvegicus, UniProt P43140)
T1 sequence (P43140 1-466): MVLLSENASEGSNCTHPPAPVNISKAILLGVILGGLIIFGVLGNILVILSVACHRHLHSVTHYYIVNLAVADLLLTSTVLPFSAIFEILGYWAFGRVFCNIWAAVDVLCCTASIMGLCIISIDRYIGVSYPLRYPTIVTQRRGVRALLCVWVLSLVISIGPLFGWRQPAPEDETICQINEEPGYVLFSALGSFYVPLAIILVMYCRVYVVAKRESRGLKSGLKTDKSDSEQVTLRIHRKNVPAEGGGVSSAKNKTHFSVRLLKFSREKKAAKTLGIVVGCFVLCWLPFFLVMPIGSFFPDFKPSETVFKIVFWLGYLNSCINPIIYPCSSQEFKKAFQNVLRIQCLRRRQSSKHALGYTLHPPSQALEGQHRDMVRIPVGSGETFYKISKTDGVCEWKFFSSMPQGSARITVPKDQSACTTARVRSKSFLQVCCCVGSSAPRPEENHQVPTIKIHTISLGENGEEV
Assay: cell-based
Conditions: phenylephrine-induced contraction; Schild plot
Method in brief: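 Phenylephrine dose-response curves for contraction were repeated against increasing test-agent concentrations. pA2 was derived by Schild plot [[…] vs log molarity of test agent].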

With `COc1cc2nc(N3CCN(C(=O)C4COc5ccccc5O4)CC3)nc(N)c2cc1OC` (centres unmarked) [Doxazosin, doxazosin, reference compound] as the compound, how does the “In Vitro Characterization (pA2) Rat Vas” value read?
The value was 8.69.

Same assay, conditions: phenylephrine-induced contraction; Schild plot; read-out: In Vitro Characterization (pA2) Rat Vas (converted)

Which Kb does the source give for `COc1cccc2c1[C@@H]1CN(CCCCn3c(=O)[nH]c4c(sc5c(OC)ccnc54)c3=O)C[C@H]1CO2` [Example 17, 3-[4-((3aS,9bR)-trans-9-Methoxy-1,2,3,3a,4,9b-hexahydro-[1]-benzopyrano[3,4-c]pyrrol-2-yl)butyl]-6-methoxy-pyrido[2',3':4,5]thieno[3,2-d]pyrimidine-2,4(1H,3H)-dione dihydrochloride] here?
Its Kb is 0.112 nM.

Which Kb does the source give for `COc1cccc2c1[C@@H]1CN(CCCCn3c(=O)[nH]c4c(sc5ccncc54)c3=O)C[C@@H]1CO2` [Example 28, 3-[4-((3aR,9bR)-cis-9-Methoxy-1,2,3,3a,4,9b-hexahydro-[1]-benzopyrano[3,4-c]pyrrol-2-yl)butyl]-pyrido[3',4':4,5]thieno[3,2-d]pyrimidine-2,4(1H,3H)-dione dihydrochloride] here?
Its Kb is 0.407 nM.

How did the Kb turn out when `COc1cccc2c1[C@@H]1CN(CCCCn3c(=O)[nH]c4c(sc5nc(C)ccc54)c3=O)C[C@H]1CO2` [Example 45, 3-[4-((3aS,9bR)-trans-9-Methoxy-1,2,3,3a,4,9b-hexahydro-[1]-benzopyrano[3,4-c]pyrrol-2-yl)butyl]-7-methyl-pyrido[3',2':4,5]thieno[3,2-d]pyrimidine-2,4(1H,3H)-dione hydrochloride] was run?
Its Kb is 0.257 nM.

Which Kb does the source give for `COc1cccc2c1[C@@H]1CN(CCCCn3c(=O)[nH]c4c(sc5c(OC)ccnc54)c3=O)C[C@@H]1CO2` [Example 18, 3-[4-((3aR,9bR)-cis-9-Methoxy-1,2,3,3a,4,9b-hexahydro[1]-benzopyrano[3,4-c]pyrrol-2-yl)butyl]-6-methoxy-pyrido[2',3':4,5]thieno[3,2-d]pyrimidine-2,4(1H,3H)-dione dihydrochloride] here?
The Kb was 0.741 nM.

Which Kb does the source give for `COc1cccc2c1[C@@H]1CN(CCCCn3c(=O)[nH]c4c(sc5ncccc54)c3=O)C[C@H]1CO2` [Example 44, 3-[4-((3aS,9bR)-trans-9-Methoxy-1,2,3,3a,4,9b-hexahydro-[1]-benzopyrano[3,4-c]pyrrol-2-yl)butyl]-pyrido[3',2':4,5]thieno[3,2-d]pyrimidine-2,4(1H,3H)-dione hydrochloride] here?
The Kb was 0.11 nM.

How did the Kb turn out when `O=c1[nH]c2c(sc3cccnc32)c(=O)n1CCCCN1C[C@@H]2COc3ccccc3[C@@H]2C1` (racemic) [Example 70, 3-[4-((±)-cis-1,2,3,3a,4,9b-hexahydro-[1]-benzopyrano[3,4-c]pyrrol-2-yl)butyl]-pyrido[2',3':4,5]thieno[3,2-d]pyrimidine-2,4(1H,3H)-dione dihydrochloride] was run?
The Kb was 6.31 nM.

With `COc1cccc2c1[C@@H]1CN(CCCCn3c(=O)[nH]c4c(sc5nc(Cl)ccc54)c3=O)C[C@H]1CO2` [Example 47, 3-[4-((3aS,9bR)-trans-9-Methoxy-1,2,3,3a,4,9b-hexahydro-[1]-benzopyrano[3,4-c]pyrrol-2-yl)butyl]-7-chloro-pyrido[3',2':4,5]thieno[3,2-d]pyrimidine-2,4(1H,3H)-dione hydrochloride] as the compound, how does the Kb read?
Its Kb is 1.12 nM.

How did the Kb turn out when `COc1cccc2c1[C@@H]1CN(CCCCn3c(=O)[nH]c4c(sc5ccncc54)c3=O)C[C@H]1CO2` [Example 41, 3-[4-((3aS,9bR)-trans-9-Methoxy-1,2,3,3a,4,9b-hexahydro-[1]-benzopyrano[3,4-c]pyrrol-2-yl)butyl]-pyrido[3',4':4,5]thieno[3,2-d]pyrimidine-2,4(1H,3H)-dione dihydrochloride] was run?
Its Kb is 0.355 nM.

For `COc1cccc2c1[C@@H]1CN(CCCCn3c(=O)[nH]c4c(sc5nccc(OC)c54)c3=O)C[C@@H]1CO2` [Example 36, 3-[4-((3aR,9bR)-cis-9-Methoxy-1,2,3,3a,4,9b-hexahydro-[1]-benzopyrano[3,4-c]pyrrol-2-yl)butyl]-9-methoxy-pyrido[3',2':4,5]thieno[3,2-d]pyrimidine-2,4(1H,3H)-dione hydrochloride], which Kb is on record?
Its Kb is 0.537 nM.

`COc1cccc2c1[C@@H]1CN(CCCCn3c(=O)[nH]c4c(sc5nc(C)ccc54)c3=O)C[C@@H]1CO2` [Example 35, 3-[4-((3aR,9bR)-cis-9-Methoxy-1,2,3,3a,4,9b-hexahydro-[1]-benzopyrano[3,4-c]pyrrol-2-yl)butyl]-7-methyl-pyrido[3',2':4,5]thieno[3,2-d]pyrimidine-2,4(1H,3H)-dione hydrochloride] was tested. Which Kb did it give?
Its Kb is 1.26 nM.

How did the Kb turn out when `COc1cccc2c1[C@@H]1CN(CCCCn3c(=O)[nH]c4c(sc5cc(Cl)cnc54)c3=O)C[C@@H]1CO2` [Example 38, 3-[4-((3aR,9bR)-cis-9-Methoxy-1,2,3,3a,4,9b-hexahydro-[1]-benzopyrano[3,4-c]pyrrol-2-yl)butyl]-7-chloro-pyrido[2',3':4,5]thieno[3,2-d]pyrimidine-2,4(1H,3H)-dione hydrochloride] was run?
Its Kb is 0.282 nM.

Which Kb does the source give for `COc1cnc2sc3c(=O)n(CCCCN4C[C@@H]5COc6cccc(OC)c6[C@@H]5C4)c(=O)[nH]c3c2n1` [Example 31, 3-[4-((3aR,9bR)-cis-9-Methoxy-1,2,3,3a,4,9b-hexahydro-[1]-benzopyrano[3,4-c]pyrrol-2-yl)butyl]-8-methoxy-pyrazino[2',3':4,5]thieno[3,2-d]pyrimidine-2,4(1H,3H)-dione hydrochloride] here?
Its Kb is 0.229 nM.

Which Kb does the source give for `COc1ccc2sc3c(=O)n(CCCCN4C[C@@H]5COc6cccc(OC)c6[C@@H]5C4)c(=O)[nH]c3c2n1` [Example 30, 3-[4-((3aR,9bR)-cis-9-Methoxy-1,2,3,3a,4,9b-hexahydro-[1]-benzopyrano[3,4-c]pyrrol-2-yl)butyl]-8-methoxy-pyrido[2',3':4,5]thieno[3,2-d]pyrimidine-2,4(1H,3H)-dione hydrochloride] here?
The Kb was 0.251 nM.

For `COc1ccc2c(n1)sc1c(=O)n(CCCCN3C[C@H]4COc5cccc(OC)c5[C@@H]4C3)c(=O)[nH]c12` [Example 46, 3-[4-((3aS,9bR)-trans-9-Methoxy-1,2,3,3a,4,9b-hexahydro-[1]-benzopyrano[3,4-c]pyrrol-2-yl)butyl]-7-methoxy-pyrido[3',2':4,5]thieno[3,2-d]pyrimidine-2,4(1H,3H)-dione hydrochloride], which Kb is on record?
Its Kb is 0.162 nM.

How did the Kb turn out when `COc1cccc2c1[C@@H]1CN(CCCCn3c(=O)[nH]c4c(sc5ccc(Cl)nc54)c3=O)C[C@H]1CO2` [Example 25, 3-[4-((3aS,9bR)-trans-9-Methoxy-1,2,3,3a,4,9b-hexahydro-[1]-benzopyrano[3,4-c]pyrrol-2-yl)butyl]-8-chloro-pyrido[2',3':4,5]thieno[3,2-d]pyrimidine-2,4(1H,3H)-dione dihydrochloride] was run?
Its Kb is 0.12 nM.

`COc1cccc2c1[C@@H]1CN(CCCCn3c(=O)[nH]c4c(sc5c(Cl)nccc54)c3=O)C[C@@H]1CO2` [Example 53, 3-[4-((3aR,9bR)-cis-9-Methoxy-1,2,3,3a,4,9b-hexahydro-[1]-benzopyrano[3,4-c]pyrrol-2-yl)butyl]-6-chloro-pyrido[4',3':4,5]thieno[3,2-d]pyrimidine-2,4(1H,3H)-dione] was tested. Which Kb did it give?
The Kb was 0.49 nM.

With `COc1cccc2c1[C@@H]1CN(CCCCn3c(=O)[nH]c4c(sc5cnccc54)c3=O)C[C@H]1CO2` [Example 42, 3-[4-((3aS,9bR)-trans-9-Methoxy-1,2,3,3a,4,9b-hexahydro-[1]-benzopyrano[3,4-c]pyrrol-2-yl)butyl]-pyrido[4',3':4,5]thieno[3,2-d]pyrimidine-2,4(1H,3H)-dione dihydrochloride] as the compound, how does the Kb read?
Its Kb is 0.257 nM.

With `COc1cccc2c1[C@@H]1CN(CCCCn3c(=O)[nH]c4c(sc5ncccc54)c3=O)C[C@@H]1CO2` [Example 34, 3-[4-((3aR,9bR)-cis-9-Methoxy-1,2,3,3a,4,9b-hexahydro-[1]-benzopyrano[3,4-c]pyrrol-2-yl)butyl]-pyrido[3',2':4,5]thieno[3,2-d]pyrimidine-2,4(1H,3H)-dione hydrochloride] as the compound, how does the Kb read?
The Kb was 0.589 nM.

How did the Kb turn out when `COc1cccc2c1[C@@H]1CN(CCCCn3c(=O)[nH]c4c(sc5ccc(OC(C)C)nc54)c3=O)C[C@H]1CO2` [Example 51, 3-[4-((3aS,9bR)-trans-9-Methoxy-1,2,3,3a,4,9b-hexahydro-[1]-benzopyrano[3,4-c]pyrrol-2-yl)butyl]-8-isopropoxy-pyrido[2',3':4,5]thieno[3,2-d]pyrimidine-2,4(1H,3H)-dione hydrochloride] was run?
The Kb was 0.631 nM.

With `COc1cccc2c1[C@@H]1CN(CCCCn3c(=O)[nH]c4c(sc5ccc(Cl)nc54)c3=O)C[C@@H]1CO2` [Example 37, 3-[4-((3aR,9bR)-cis-9-Methoxy-1,2,3,3a,4,9b-hexahydro-[1]-benzopyrano[3,4-c]pyrrol-2-yl)butyl]-8-chloro-pyrido[2',3':4,5]thieno[3,2-d]pyrimidine-2,4(1H,3H)-dione hydrochloride] as the compound, how does the Kb read?
The Kb was 0.204 nM.

For `COc1cccc2c1[C@@H]1CN(CCCCn3c(=O)[nH]c4c(sc5nc(-c6ccccc6)cnc54)c3=O)C[C@@H]1CO2` [Example 40, 3-[4-((3aR,9bR)-cis-9-Methoxy-1,2,3,3a,4,9b-hexahydro-[1]-benzopyrano[3,4-c]pyrrol-2-yl)butyl]-7-phenyl-pyrazino[2',3':4,5]thieno[3,2-d]pyrimidine-2,4(1H,3H)-dione hydrochloride], which Kb is on record?
The Kb was 3.02 nM.

`COc1cccc2c1[C@@H]1CN(CCCCn3c(=O)[nH]c4c(sc5cnccc54)c3=O)C[C@@H]1CO2` [Example 29, 3-[4-((3aR,9bR)-cis-9-Methoxy-1,2,3,3a,4,9b-hexahydro-[1]-benzopyrano[3,4-c]pyrrol-2-yl)butyl]-pyrido[4',3':4,5]thieno[3,2-d]pyrimidine-2,4(1H,3H)-dione dihydrochloride] was tested. Which Kb did it give?
Its Kb is 0.437 nM.
